Results from US20070123555A1, “PREVENTION AND TREATMENT OF HEARING DISORDERS” (Cypress Bioscience, Inc., priority 2005, published 2007).
“Also recorded” adds a separate entry of the source. Like-named read-outs stand apart in the source and are kept apart here.

Experiments:
CYP2D6 [1] = settings: in vivo; cited from earlier work
CYP2D6 [2] = molecular target: CYP2D6 (Homo sapiens, UniProt P10635); settings: cited from earlier work
cochlea = settings: local administration; cited from earlier work
[3] = system: permanent threshold shift; settings: 6.7 mmol daily, versus placebo (sodium aspartate); rifle noise six days per week for eight weeks; cited from earlier work
[4] = system: noise-induced temporary threshold shift; settings: daily ingestion of 122 mg for 10 days; cited from earlier work
[5] = system: outer hair cells of cochlear explants; experiment: Cochlear explant cultures challenged with cisplatin, outer hair cell damage; format: cell-based, Sprague-Dawley rats
Source text: Explants of sensory epithelium from the basal turn of postnatal day 5 (p5) Sprague-Dawley rats were isolated using the methods of Van De Water and Sobkowicz (Van d Water T., Ruben R. J. (1974) “Growth of the inner ear in organ culture,” Ann. Otol. Rhinol. Laryngol., 83:1-16; Sobkowicz H. M., Loftus J. M., Slapnick S. M. (1993) “Tissue culture of the organ of Corti.,” Acta. Suppl. 502:3-36). Explants were maintained in Dulbecco's Modified Eagle's medium with 10% fetal bovine serum and 30 U/ml penicillin. HEPES buffer was added to a concentration of 25 mM and the glucose concentration increased to 6 mg/ml to enhance neuronal survival. Each 15 mm dish containing 250 μl of medium was maintained in an incubator at 37° C. with 5% CO2 and 95% humidity.
Toxicity-inducers (gentamicin or cisplatin, 1-100 μM) were exposed to the medium 12-24 h following plating for 48 h. Concentrations of gentamicin or cisplatin were employed that produced approximately 50% loss of outer hair cells, which permitted for assessments of either increases or decreases in outer hair cell damage.
Test compounds were applied to the cultures for 12 h, and then challenged with medium containing gentamicin or cisplatin plus the test compound for an additional 48 h, followed by fixation and evaluation.
At the end of culture, free floating explants were fixed with 4% paraformaldehyde and 1% glutaraldehyde in phosphate-buffered saline. The explants were then permeabilized with 1 % Tween-20 in phosphate-buffered saline. The explants were then stained with conjugated phalloidin-rhodamine probe in phosphate-buffered saline, washed twice, and mounted between two cover slips in a 1:3 mixture of phosphate-buffered saline/glycerol. Explants were imaged by light and fluorescence microscopy and by laser confocal microscopy to assess the degree of damage to the outer hair cells.
The results of one such test, employing cisplatin as an ototoxic agent and nicergoline as a test compound, are shown in FIG. 1. The control cultures contained no cisplatin and no nicergoline. […]

cochlear sensory cells = settings: perfusion into the cochlea via osmotic minipump; cited from earlier work

Chain of CYP2D6 (Homo sapiens, UniProt P10635) (P10635 whole entry): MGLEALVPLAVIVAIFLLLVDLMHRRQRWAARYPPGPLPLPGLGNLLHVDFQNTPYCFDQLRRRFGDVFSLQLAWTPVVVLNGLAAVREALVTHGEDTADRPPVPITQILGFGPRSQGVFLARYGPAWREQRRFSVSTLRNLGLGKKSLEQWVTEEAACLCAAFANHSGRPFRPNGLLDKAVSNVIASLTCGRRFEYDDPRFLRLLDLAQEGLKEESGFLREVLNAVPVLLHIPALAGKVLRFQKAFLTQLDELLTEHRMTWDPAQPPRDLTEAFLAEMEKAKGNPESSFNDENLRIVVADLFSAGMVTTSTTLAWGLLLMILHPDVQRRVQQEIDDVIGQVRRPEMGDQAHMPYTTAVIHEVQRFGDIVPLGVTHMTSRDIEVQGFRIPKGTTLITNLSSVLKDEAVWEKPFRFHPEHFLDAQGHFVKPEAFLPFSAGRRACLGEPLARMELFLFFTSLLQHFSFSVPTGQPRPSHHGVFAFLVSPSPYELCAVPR

In the case of `CO[C@]12C[C@@H](CO)CN(C)[C@@H]1Cc1c[nH]c3cccc2c13` [MDL, 10-α-methoxy-9,9-dihydrolysergol], the “level in plasma after nicergoline dosing” value (CYP2D6 [1]) is given as “low concentration of MDL”.
In the case of `CO[C@]12C[C@@H](CO)CN(C)[C@@H]1Cc1cn(C)c3cccc2c13` [MMDL, 1-methyl-10-α-methoxy-9,10-dihydrolysergol], the “level in blood plasma after nicergoline dosing” value (CYP2D6 [2]; in vivo) is listed as “very little MMDL” and the “level in plasma after nicergoline dosing” value (CYP2D6 [1]) is listed as “relatively high concentrations of MMDL”.
In the case of `CCN(CC)CCn1c(=O)c(Cc2ccc(OC)cc2)nc2ccccc21` [caroverine, 1-[2-(diethylamino)ethyl]-3-[(4-methoxyphenyl)methyl]-2-(1H)-quinoxalinone], the “protection of cochlea from noise trauma” value (cochlea) is listed as “protection of cochlea from noise trauma”.
In the case of `N[C@@H](CC(=O)[O-])C(=O)[O-].[Mg+2]` [magnesium aspartate], the “effect on permanent threshold shift” value [3] is given as “significant effect on permanent threshold shift”.
For `[Mg]` [magnesium], the “effect on noise-induced temporary threshold shift” value [4] is given as “protect against noise-induced temporary threshold shift”.
In the case of `CO[C@]12C[C@@H](COC(=O)c3cncc(Br)c3)CN(C)[C@@H]1Cc1cn(C)c3cccc2c13` [nicergoline], the “level in blood plasma after nicergoline dosing” value (CYP2D6 [2]; individuals having normal CYP2D6 function) is listed as “almost no detectable nicergoline in blood plasma”, the “concentrations at which nicergoline itself is non-toxic to cochlear cultures” value ([5]; 0 μg/ml cisplatin, 10 μM nicergoline, 5 cultures) is listed as “up to 10 μM” and the “protection against toxic effects of cisplatin” value ([5]; 2 μg/ml cisplatin, nicergoline 10 nM, 1 μM or 10 μM, FIG. 1) is listed as “protects cochlear ear explants from chemically-induced damage by cisplatin; also recorded: exerting protection against the toxic effects of cisplatin at all tested concentrations”. For the same compound, the “concentration providing maximum protection from cisplatin-induced cell death” value ([5]; cisplatin 2 μg/ml (sentence prints 2 μM), test compound 12 h, then with cisplatin 48 h, 5 cultures each) was “about 1 μM”.
For `Nc1nc2ccc(OC(F)(F)F)cc2s1` [riluzole, 2-amino-6-trofluoromethoxybenzothiazole], the “effect on cochlear damage after acoustic trauma” value (cochlear sensory cells) is given as “prevents mitochondrial damage and subsequent translocation of cytochrome c, DNA fragmentation and hair cell degeneration”.
